Measurements reported in patent publication US6166013A, “Glucocortiocoid-selective agents” (Abbott Laboratories, priority 1999, dated 2000).
pKi: −log10 of the molar value. Like-named read-outs stand apart in the source and are kept apart here.

Legend:
[1] = molecular target: T1, human estrogen receptor-alpha (Homo sapiens, UniProt P03372); assay: soluble estrogen receptor-alpha (ER-α) binding assay, [3H]-estradiol
T1 construct: made in house; host or cells: yeast strain BJ2168 (copper induced)
T1 sequence (P03372 1-595): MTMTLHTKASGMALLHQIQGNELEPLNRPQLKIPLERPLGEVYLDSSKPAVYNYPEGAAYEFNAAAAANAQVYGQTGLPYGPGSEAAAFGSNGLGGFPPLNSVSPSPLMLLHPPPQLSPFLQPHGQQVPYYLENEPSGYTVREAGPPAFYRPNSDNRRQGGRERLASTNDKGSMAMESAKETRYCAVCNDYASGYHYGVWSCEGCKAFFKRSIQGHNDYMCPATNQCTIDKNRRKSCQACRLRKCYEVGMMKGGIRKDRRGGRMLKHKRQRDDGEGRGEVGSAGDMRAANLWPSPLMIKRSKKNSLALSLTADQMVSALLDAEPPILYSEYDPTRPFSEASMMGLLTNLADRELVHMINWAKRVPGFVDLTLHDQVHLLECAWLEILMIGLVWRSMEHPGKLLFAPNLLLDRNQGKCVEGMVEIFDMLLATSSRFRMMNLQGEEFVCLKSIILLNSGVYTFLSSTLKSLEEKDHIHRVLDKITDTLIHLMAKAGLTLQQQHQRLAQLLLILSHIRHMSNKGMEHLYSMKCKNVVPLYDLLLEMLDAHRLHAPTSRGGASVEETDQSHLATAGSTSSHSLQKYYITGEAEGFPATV
From the text: For soluble estrogen receptor-alpha (ER-α) binding assays, [^3 H]- Estradiol (120-140 Ci/mmol) was purchased from New England Nuclear (Boston, Mass.), 17-beta estradiol was purchased from Sigma Chemical Co. (St. Louis, Mo.), CHAPS and DTT were purchased from Boehringer Mannheim GmbH (W. Germany) and all other reagents were purchased from Sigma.
The human estrogen receptor-alpha cDNA was cloned into a yeast vector termed pYhERα and used to transform wild type yeast strain BJ2168 following the protocol outlined by Pham, T. A., Hwung Y. P., Santiso-Mere,D., McDonnell D. P., O'Malley, B. W., Ligand-Dependent and Independent Function of the Transactivation Regions of the Human Estrogen Receptor in Yeast, Mol. Endocrinol. […] The yeast was induced with copper for 16 hours after which the cells were harvested, washed and the receptor extract prepared in cold buffer via a Bead Beater (BioSpec Products, Bartlesville, Okla.). Aliquots of the receptor typically contained 5-10 mg/ml of total protein and were stored at -80° C. until used. Estradiol or other competing compounds were prepared as 5 mM stock solutions in either 100% ethanol or DMSO and serial dilutions were carried out in 1:1 DMSO-ethanol. The assay buffer consisted of the following: 300 mM potassium chloride, 10 mM Trizma Base, 2 mM DTT and 5 mM CHAPS, pH=7.5 at room temperature.
Assays were set up using a 96-well minitube system and incubations were carried out at 4° C. for 18 hours. Equilibrium under these conditions of buffer and temperature was achieved by 6-8 hours. Nonspecific binding was defined as that binding remaining in the presence of 1000 nM unlabeled estradiol. […] The amount of receptor-ligand complex was determined by liquid scintillation counting of the hydroxyapatite pellet after the addition of […] EcoScint A scintillation cocktail from National Diagnostics (Atlanta, Ga.).
After correcting for nonspecific binding, IC50 values were determined. […] The IC50 values were determined graphically from a log-logit plot of the data.

[2] = molecular target: T2, human glucocorticoid receptor-α [GRX] isoform (Homo sapiens, UniProt P04150); assay: glucocorticoid receptor (GR) cytosol binding assay, [3H]-dexamethasone; conditions: displacement of [3H]-Dex (~0.9 nM), 4° C. overnight
T2 construct: purchased Ligand Pharmaceuticals (San Diego, Calif.); host or cells: insect SF21 cells (baculovirus)
T2 sequence (P04150 1-777): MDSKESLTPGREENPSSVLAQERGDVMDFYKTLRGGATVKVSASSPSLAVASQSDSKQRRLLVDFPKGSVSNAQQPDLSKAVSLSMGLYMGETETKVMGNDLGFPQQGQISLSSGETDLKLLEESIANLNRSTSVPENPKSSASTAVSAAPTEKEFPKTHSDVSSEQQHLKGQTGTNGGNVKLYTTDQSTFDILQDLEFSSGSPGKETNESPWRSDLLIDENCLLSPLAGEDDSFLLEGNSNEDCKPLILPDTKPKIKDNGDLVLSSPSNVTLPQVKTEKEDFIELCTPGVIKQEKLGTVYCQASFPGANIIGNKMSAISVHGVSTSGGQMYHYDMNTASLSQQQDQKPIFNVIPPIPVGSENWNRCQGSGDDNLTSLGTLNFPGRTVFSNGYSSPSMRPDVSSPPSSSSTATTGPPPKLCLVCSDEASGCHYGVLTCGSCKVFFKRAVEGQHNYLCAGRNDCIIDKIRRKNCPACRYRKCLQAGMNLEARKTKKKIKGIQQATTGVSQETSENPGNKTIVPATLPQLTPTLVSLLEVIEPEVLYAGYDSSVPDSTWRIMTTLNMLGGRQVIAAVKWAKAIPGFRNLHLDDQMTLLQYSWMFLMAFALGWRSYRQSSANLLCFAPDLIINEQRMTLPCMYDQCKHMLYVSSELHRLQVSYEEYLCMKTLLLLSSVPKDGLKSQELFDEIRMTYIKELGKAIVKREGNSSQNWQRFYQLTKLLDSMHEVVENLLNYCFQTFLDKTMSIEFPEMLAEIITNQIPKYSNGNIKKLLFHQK
From the text: Briefly, cytosol preparations of human glucocorticoid receptor-α [GRX] isoform and human progesterone receptor-A [PRA] isoform were obtained from Ligand Pharmaceuticals (San Diego, Calif.). Both receptor cDNAs were cloned into baculovirus expression vectors and expressed in insect SF21 cells. [^3 H]-dexamethasone (Dex, specific activity 82-86 Ci/mmole) and [^3 H]-progesterone (Prog, specific activity 97-102 Ci/mmol) were purchased from Amersham Life Sciences (Arlington Heights, Ill.). Glass fiber type C multiscreen MAFC NOB plates were from Millipore (Burlington, Mass.). Hydroxyapatide Bio-Gel HTP gel was obtained from Bio-Rad Laboratories (Hercules, Calif.). Tris(hydroxymethyl)aminomethane (Tris), ethylenediaminetetraacetic acid (EDTA), glycerol, dithiothreitol (DTT) and sodium moylybdate were obtained from Sigma Chemicals (St. Louis, Mo.). […]
After an overnight incubation, 50 μL of hydroxyapatite (25% weight/volume) slurry were added to each well and plates were incubated for 10 min at 4° C. in a plate shaker. […] The amount of radioactivity was determined with a Packard TopCount plate reader.
The Ki of test compounds was determined using the Cheng-Prusoff equation Ki =IC50 /(1+[L*]/[KL ]) where L* is the concentration of radioligand and KL is the dissociation constant of the radioligand determined from saturation analysis.

[3] = displacement of [3H]-estradiol (2-3 nM), 4° C., 18 hours, read-out: Ki ER-α

Row | SMILES | pKi [1, 3] | pKi [2] | other results
1 | CN(C)c1ccc(C(c2ccc(N(C)C)cc2)c2cc(Cl)ccc2Cl)cc1 [Example 24, 4',4"bis(dimethylamino)-2,5-dichlorotriphenylmethane] |  |  | pKi [1]: < 5.00
2 | CC(=O)OCCN(C)c1ccc(C(c2ccc(N(C)CCOC(C)=O)cc2)c2cc([N+](=O)[O-])ccc2Cl)cc1 [Example 31, 4',4"bis(N-(2-acetoxyethyl) N-methylamino)-2-chloro-5-nitrotriphenylmethane] | < 5.00 |  | 
3 | CN(CCO)c1ccc(C(c2ccc(N(C)CCO)cc2)c2cc([N+](=O)[O-])ccc2Cl)cc1 [Example 32, 4',4"bis(N-(2-hydroxyethyl) N-methylamino)-2-chloro-5-nitrotriphenylmethane] | < 5.00 |  | 
4 | CN(C(=O)OC(C)(C)C)c1ccc(C(c2ccc(N(C)C(=O)OC(C)(C)C)cc2)c2cc([N+](=O)[O-])ccc2Cl)cc1 [Example 35, 4',4"bis(N-(t-butoxycarbonyl) N-methylamino)-2-chloro-5-nitrotriphenylmethane] |  | 5.34 | 
5 | CN(C)c1ccc(C(c2ccc(N(C)C)cc2)c2cc(NC(=O)/C=C/c3ccc([N+](=O)[O-])cc3)ccc2Cl)cc1 [Example 61, 4',4"bis(dimethylamino)-2-chloro-5-(4-nitrocinnamido)triphenylmethane] |  | 5.34 | 
